Values quoted from earlier work as cited in patent publication US7863316B2, “Extended release formulation of Levetiracetam” (UCB Pharma S.A., priority 2005, dated 2011).

Key:
[1] = not given; remark: listed apart in the source
[2] = three different pH media, immediate release tablet

Which “time to steady state kinetics” value (after multiple twice daily dosing) does the source give for CC[C@@H](C(N)=O)N1CCCC1=O [Levetiracetam, (−)-(S)-α-ethyl-2-oxo-1-pyrrolidine acetamide] here?
Its value is 2 days.

And the “bound to plasma proteins” value (in vivo)?
The value was “less than 10%”.

What about the renal clearance (in vivo) of the same molecule?
Its renal clearance is 0.6 mL/min/kg.

What about the total body clearance (in vivo) of the same molecule?
Its total body clearance is 0.9 mL/min/kg.

And the volume of distribution (in vivo)?
Its volume of distribution is 0.6 L/kg.

And the “decrease of cmax by food” value (with food)?
The value was 20%.

And the “delay of Tmax by food” value (with food)?
The value was 1.5 h.

What about the solubility in acetonitrile ([1]; acetonitrile) of the same molecule?
The solubility in acetonitrile was 5.7 g/100 mL.

What about the solubility in chloroform ([1]; chloroform) of the same molecule?
The solubility in chloroform was 65.3 g/100 mL.

What about the solubility in ethanol ([1]; ethanol) of the same molecule?
The solubility in ethanol was 16.5 g/100 mL.

And the solubility in methanol ([1]; methanol)?
Its solubility in methanol is 53.6 g/100 mL.

What about the solubility in n-hexane ([1]; n-hexane) of the same molecule?
Its solubility in n-hexane is “practically insoluble”.

What about the aqueous solubility ([1]; water) of the same molecule?
Its aqueous solubility is 104 g/100 mL.

What about the “tablet amount released in 15 minutes” value [2] of the same molecule?
Its value is > 85%.
